The results in this text go back to patent US6596718B1, “7-Morpholin-4yl-benzothiazole amide derivatives” (Hoffmann-La Roche Inc., priority 2001, dated 2003).

The target in data set [1] is T1, human adenosine A1 receptor (Homo sapiens, UniProt P30542).
T1 construct: expressed in transfected cells; host or cells: CHO cells, Semliki Forest virus expression system; membrane preparation
T1 sequence (P30542 1-326): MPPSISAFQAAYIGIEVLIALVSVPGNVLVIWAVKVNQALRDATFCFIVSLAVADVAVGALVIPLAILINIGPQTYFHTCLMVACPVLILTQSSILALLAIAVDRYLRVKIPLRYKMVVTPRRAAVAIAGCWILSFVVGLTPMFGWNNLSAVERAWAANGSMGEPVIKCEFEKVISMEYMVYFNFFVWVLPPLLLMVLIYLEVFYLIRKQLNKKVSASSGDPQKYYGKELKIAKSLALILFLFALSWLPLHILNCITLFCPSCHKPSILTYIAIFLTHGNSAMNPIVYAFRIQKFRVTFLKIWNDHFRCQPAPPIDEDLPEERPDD
The data set can be described thus: [3H]-DPCPX binding assay, human adenosine A1 receptor (SPA, CHO cell membranes). The settings on record: recombinant human A1 in CHO membranes; [3H]-DPCPX 0.6 nM; Ki by Cheng-Prussoff; read-out: hA1 (pKi) (converted). As for the experimental part:
Human Adenosine A1 Receptor
(§1) The human adenosine A1 receptor was recombinantly expressed in chinese hamster ovary (CHO) cells using the semlilki forest virus expression system. Cells were harvested, washed twice by centrifugation, homogenized and again washed by centrifugation. The final washed membrane pellet was suspended in a Tris (50 mM) buffer containing 120 mM NaCl, 5 mM KCl, 2 mM CaCl2 and 10 mM MgCl2 (pH 7.4) (buffer A). The [^3H]-DPCPX (([propyl-^3H]8-cyclopentyl-1,3-dipropyxanthine); 0.6 nM) binding assay was carried out in 96-well plates in the presence of 2.5 μg of membrane protein, 0.5 mg of Ysi-poly-l-lysine SPA beads and 0.1 U adenosine deaminase in a final volume of 200 μl of buffer A. Non-specific binding was defined using xanthine amine congener (XAC; 2 μM). Compounds were tested at 10 concentrations from 10 μM-0.3 nM. All assays were conducted in duplicate and repeated at least two times. Assay plates were incubated for 1 hour at room temperature before centrifugation and then bound ligand determined using a Packard Topcount scintillation counter. IC50, the concentration where 50% of the […] binding is displaced, values were calculated using a non-linear curve fitting program and ki values calculated using the Cheng-Prussoff equation.

In data set [2] the target is T2, human adenosine A2A receptor (Homo sapiens, UniProt P29274).
T2 construct: expressed in transfected cells; host or cells: CHO cells, Semliki Forest virus expression system; membrane preparation
T2 sequence (P29274 whole entry): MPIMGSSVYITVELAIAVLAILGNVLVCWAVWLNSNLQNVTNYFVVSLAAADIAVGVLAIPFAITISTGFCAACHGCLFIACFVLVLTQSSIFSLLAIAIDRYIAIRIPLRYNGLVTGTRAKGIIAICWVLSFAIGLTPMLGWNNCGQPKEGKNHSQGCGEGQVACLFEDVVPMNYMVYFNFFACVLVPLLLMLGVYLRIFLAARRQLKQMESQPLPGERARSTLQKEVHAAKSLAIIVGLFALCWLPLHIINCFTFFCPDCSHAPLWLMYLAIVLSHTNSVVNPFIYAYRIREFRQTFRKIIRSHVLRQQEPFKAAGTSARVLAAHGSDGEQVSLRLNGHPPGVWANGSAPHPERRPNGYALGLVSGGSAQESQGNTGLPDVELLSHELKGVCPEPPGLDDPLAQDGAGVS
The data set can be described thus: [3H]-SCH-58261 binding assay, human adenosine A2A receptor (SPA, CHO cell membranes). The settings on record: recombinant human A2A in CHO membranes; [3H]-SCH-58261 1 nM; Ki by Cheng-Prussoff; read-out: hA2 (pKi) (converted). As for the experimental part:
Human Adenosine A2A Receptor
as §1, with “adenosine A2A” for “adenosine A1”, “(buffer A)” for “(buffer A).”, “The [^3H]-SCH-58261 (Dionisotti et al., 1997, Br J Pharmacol 121, 353; 1” for “The [^3H]-DPCPX (([propyl-^3H]8-cyclopentyl-1,3-dipropyxanthine); 0.6”, “counter. IC50 values,” for “counter. IC50,”, “displaced,” for “displaced, values”, “and Ki” for “and ki”

Consider `COc1ccc(N2CCOCC2)c2sc(C(=O)NCCc3cccc(F)c3)nc12` [Example 57, 4-Methoxy-7-morpholin-4-yl-benzothiazole-2-carboxylic acid [2-(3-fluoro-phenyl)-ethyl]-amide], for which the melting point was in the range of 120 to 122 °C. The Ki in data set [1] is 1580 nM. Besides, the Ki in data set [2] was 20 nM.

With `COc1ccc(N2CCOCC2)c2sc(C(=O)NCCc3ccccc3Cl)nc12` [Example 63, 4-Methoxy-7-morpholin-4-yl-benzothiazole-2-carboxylic acid [2-(2-chloro-phenyl)-ethyl]-amide], the melting point was 141 to 143 °C. The Ki in data set [1] is 1000 nM. Further, the Ki in data set [2] was 20 nM.

For `COc1cccc(CCNC(=O)c2nc3c(OC)ccc(N4CCOCC4)c3s2)c1` [Example 64, 4-Methoxy-7-morpholin-4-yl-benzothiazole-2-carboxylic acid [2-(3-methoxy-phenyl)-ethyl] amide], the melting point lay in the range of 99 to 101 °C. The Ki in data set [1] was 1260 nM. Further, the Ki in data set [2] is 25.1 nM.

Take `COc1ccc(N2CCOCC2)c2sc(C(=O)NCCc3cccc(Cl)c3)nc12` [Example 65, 4-Methoxy-7-morpholin-4-yl-benzothiazole-2-carboxylic acid [2-(3-chloro-phenyl)-ethyl]-amide]: the melting point was 109 to 111 °C. For the same molecule, in data set [1], the Ki is 501 nM. Further, the Ki in data set [2] is 25.1 nM.

`COc1ccc(N2CCOCC2)c2sc(C(=O)NCCc3cccc(C)c3)nc12` [Example 71, 4-Methoxy-7-morpholin-4-yl-benzothiazole-2-carboxylic acid (2-m-tolyl-ethyl)-amide] displayed a melting point of 119 to 121 °C. In addition, the Ki in data set [1] was 1260 nM. Moreover, in data set [2], the Ki was 25.1 nM.

For `COc1ccc(N2CCOCC2)c2sc(C(=O)NC(C)c3nc(C)cs3)nc12` (stereo not drawn) [Example 77, 4-Methoxy-7-morpholin-4-yl-benzothiazole-2-carboxylic acid [1-(4-methyl-thiazol-2-yl)-ethyl]-amide], the melting point lay in the range of 175 to 176 °C. In data set [1], the Ki was 501 nM. Moreover, the Ki in data set [2] was 5.01 nM.

In turn, `COc1ccc(N2CCOCC2)c2sc(C(=O)NC(C)Cc3cccs3)nc12` (stereo not drawn) [Example 81, 4-Methoxy-7-morpholin-4-yl-benzothiazole-2-carboxylic acid (1-methyl-2-thiophen-2-yl-ethyl)-amide] came in with a melting point of 127 to 129 °C. Moreover, the Ki in data set [1] is 200 nM. For the same molecule, in data set [2], the Ki is 1.26 nM.
